What was measured:
Type in all cases: functional, cell-based
[1] = system: HepG2; experiment: Cytotoxicity against human HepG2 cells assessed as reduction in cell viability by MTT assay
[2] = system: A549; experiment: Cytotoxicity against human A549 cells assessed as reduction in cell viability by MTT assay
[3] = system: HeLa; experiment: Cytotoxicity against human HeLa cells assessed as reduction in cell viability by MTT assay

SMILES	IC50 [1] [µM]	IC50 [2] [µM]	IC50 [3] [µM]
C=C[C@]1(O)CC(N)=C([C@@H](C)c2c(O)cc(C)oc2=O)C1=O	30.8	16.9	33.9
COc1cc([C@@H]2c3cc4c(cc3[C@@H](O[C@@H]3O[C@@H]5CO[C@@H](C)O[C@H]5[C@H](O)[C@H]3O)[C@H]3COC(=O)[C@H]23)OCO4)cc(OC)c1O [ETOPOSIDE]	16.1	16.6	15

— ChEMBL document CHEMBL4190204, “Trichoderpyrone, a Unique Polyketide Hybrid with a Cyclopentenone-Pyrone Skeleton from the Plant Endophytic Fungus Trichoderma gamsii” (J Nat Prod, 2017)
